pEC50: −log10 of the molar value. Structures can show the parent of a compound that is named as a salt.
Key:
[1] = target: T1, β1 (Homo sapiens, UniProt P08588); test: Radioligand binding; conditions: 100 μM
T1 construct: purchased Eurofins CEREP

[2] = target: T2, 5-HT3 (Homo sapiens, UniProt P46098); test: Radioligand binding; conditions: 100 μM
T2 construct: purchased Eurofins CEREP

[3] = target: T3, β2 (Homo sapiens, UniProt P07550); test: Radioligand binding; conditions: 100 μM
T3 construct: purchased Eurofins CEREP
T3 sequence (P07550 whole entry): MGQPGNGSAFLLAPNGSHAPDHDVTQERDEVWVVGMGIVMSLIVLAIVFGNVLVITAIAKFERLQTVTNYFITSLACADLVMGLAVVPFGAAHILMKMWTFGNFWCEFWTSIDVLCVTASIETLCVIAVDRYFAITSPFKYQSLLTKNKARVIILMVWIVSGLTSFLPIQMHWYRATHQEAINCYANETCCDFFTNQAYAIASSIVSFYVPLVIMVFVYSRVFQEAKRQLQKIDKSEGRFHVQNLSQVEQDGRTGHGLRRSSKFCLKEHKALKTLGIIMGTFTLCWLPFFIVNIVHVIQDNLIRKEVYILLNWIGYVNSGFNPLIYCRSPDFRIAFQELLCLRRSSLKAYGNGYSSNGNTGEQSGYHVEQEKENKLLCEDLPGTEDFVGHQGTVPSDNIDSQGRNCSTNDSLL

[4] = target: T4, GR (Homo sapiens, UniProt P04150); test: Radioligand binding; conditions: 100 μM
T4 construct: purchased Eurofins CEREP

[5] = target: T5, GAL1 (Homo sapiens, UniProt P47211); test: Radioligand binding; conditions: 100 μM
T5 construct: purchased Eurofins CEREP
T5 sequence (P47211 whole entry): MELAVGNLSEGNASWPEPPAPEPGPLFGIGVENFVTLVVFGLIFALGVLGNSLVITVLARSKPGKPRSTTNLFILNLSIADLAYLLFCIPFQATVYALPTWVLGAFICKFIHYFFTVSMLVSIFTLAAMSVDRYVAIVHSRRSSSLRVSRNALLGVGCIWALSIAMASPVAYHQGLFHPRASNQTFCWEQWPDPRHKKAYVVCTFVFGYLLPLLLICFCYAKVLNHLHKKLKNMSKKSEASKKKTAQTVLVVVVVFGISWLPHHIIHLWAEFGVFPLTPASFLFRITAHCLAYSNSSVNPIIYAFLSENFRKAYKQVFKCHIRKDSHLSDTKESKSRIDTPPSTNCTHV

[6] = target: T6, μ (MOP) (Homo sapiens, UniProt P35372); test: Radioligand binding; conditions: 100 μM
T6 construct: purchased Eurofins CEREP
T6 sequence (P35372 whole entry): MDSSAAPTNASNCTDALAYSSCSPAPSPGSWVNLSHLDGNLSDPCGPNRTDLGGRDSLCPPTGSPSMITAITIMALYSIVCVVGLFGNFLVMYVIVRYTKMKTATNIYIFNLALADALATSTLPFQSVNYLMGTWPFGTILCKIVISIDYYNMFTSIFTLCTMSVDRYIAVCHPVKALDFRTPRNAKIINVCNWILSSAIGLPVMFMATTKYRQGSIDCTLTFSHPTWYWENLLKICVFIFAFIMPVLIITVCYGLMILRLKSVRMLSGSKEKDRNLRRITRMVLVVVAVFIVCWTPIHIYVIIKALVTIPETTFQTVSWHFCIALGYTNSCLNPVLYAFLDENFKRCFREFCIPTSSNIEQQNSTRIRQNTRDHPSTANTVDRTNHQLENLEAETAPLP

[7] = target: T7, ETA (Homo sapiens, UniProt P25101); test: Radioligand binding; conditions: 100 μM
T7 construct: purchased Eurofins CEREP
T7 sequence (P25101 21-427): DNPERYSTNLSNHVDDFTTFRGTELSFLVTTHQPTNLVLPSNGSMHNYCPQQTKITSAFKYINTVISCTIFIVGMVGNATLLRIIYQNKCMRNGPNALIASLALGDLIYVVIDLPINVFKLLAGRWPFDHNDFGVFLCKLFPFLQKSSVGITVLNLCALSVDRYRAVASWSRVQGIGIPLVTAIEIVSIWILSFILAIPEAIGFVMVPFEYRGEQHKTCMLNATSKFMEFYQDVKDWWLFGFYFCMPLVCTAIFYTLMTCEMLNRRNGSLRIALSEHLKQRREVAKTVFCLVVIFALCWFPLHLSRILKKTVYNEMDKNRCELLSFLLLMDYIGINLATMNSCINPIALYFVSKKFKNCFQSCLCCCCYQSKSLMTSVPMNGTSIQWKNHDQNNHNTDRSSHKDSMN

[8] = target: T8, 5-HT5a (Homo sapiens, UniProt P47898); test: Radioligand binding; conditions: 100 μM
T8 construct: purchased Eurofins CEREP
T8 sequence (P47898 whole entry): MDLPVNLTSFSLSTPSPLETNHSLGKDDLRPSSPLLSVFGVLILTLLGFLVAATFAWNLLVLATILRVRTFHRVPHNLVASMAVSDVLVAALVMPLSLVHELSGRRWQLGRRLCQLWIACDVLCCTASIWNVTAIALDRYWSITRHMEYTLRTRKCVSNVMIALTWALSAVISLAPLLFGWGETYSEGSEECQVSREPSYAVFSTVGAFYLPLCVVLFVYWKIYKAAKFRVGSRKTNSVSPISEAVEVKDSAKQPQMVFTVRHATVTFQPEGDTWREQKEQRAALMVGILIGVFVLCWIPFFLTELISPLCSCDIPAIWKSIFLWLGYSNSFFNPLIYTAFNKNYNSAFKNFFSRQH

[9] = system: PDGF; test: Radioligand binding; conditions: 100 μM
[10] = target: T9, norepinephrine transporter (Homo sapiens, UniProt P23975); test: Radioligand binding; conditions: 100 μM
T9 construct: purchased Eurofins CEREP
T9 sequence (P23975 whole entry): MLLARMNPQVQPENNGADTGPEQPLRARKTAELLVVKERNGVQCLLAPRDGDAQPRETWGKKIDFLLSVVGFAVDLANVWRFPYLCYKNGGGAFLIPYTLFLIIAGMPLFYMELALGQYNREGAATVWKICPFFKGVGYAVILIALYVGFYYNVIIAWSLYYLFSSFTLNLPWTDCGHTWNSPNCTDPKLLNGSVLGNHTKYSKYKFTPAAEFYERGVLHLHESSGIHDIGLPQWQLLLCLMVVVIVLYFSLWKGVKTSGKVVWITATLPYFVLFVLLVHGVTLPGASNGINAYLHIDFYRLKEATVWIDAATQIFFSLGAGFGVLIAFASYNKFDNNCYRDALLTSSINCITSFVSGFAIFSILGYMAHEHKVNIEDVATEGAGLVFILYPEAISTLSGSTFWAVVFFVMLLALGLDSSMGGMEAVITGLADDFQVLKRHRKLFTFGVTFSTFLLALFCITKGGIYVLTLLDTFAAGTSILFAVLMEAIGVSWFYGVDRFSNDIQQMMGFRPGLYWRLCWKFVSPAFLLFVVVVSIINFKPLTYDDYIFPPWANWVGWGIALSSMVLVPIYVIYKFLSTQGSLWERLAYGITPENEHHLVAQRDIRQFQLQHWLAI

[11] = target: T10, CGRP (Homo sapiens, UniProt O60894+Q16602); test: Radioligand binding; conditions: 100 μM
T10 construct: purchased Eurofins CEREP
T10 sequence (Q16602 23-461): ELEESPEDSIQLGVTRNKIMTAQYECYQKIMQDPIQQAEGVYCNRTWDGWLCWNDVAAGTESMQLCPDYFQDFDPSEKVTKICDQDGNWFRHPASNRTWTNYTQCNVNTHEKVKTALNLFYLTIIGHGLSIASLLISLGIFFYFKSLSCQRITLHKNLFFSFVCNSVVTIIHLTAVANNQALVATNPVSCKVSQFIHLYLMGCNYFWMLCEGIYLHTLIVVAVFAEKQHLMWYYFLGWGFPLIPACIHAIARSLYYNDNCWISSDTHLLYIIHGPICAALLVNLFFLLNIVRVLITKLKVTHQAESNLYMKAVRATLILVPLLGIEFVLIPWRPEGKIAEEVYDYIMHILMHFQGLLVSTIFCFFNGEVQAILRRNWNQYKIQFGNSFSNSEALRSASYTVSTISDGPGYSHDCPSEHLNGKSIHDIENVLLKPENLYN
T10 sequence (O60894 27-148): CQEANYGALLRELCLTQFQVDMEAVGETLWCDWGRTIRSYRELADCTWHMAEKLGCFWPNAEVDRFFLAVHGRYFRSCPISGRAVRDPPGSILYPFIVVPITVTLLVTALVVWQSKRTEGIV

[12] = target: T11, H1 (Homo sapiens, UniProt P35367); test: Radioligand binding; conditions: 100 μM
T11 construct: purchased Eurofins CEREP
T11 sequence (P35367 whole entry): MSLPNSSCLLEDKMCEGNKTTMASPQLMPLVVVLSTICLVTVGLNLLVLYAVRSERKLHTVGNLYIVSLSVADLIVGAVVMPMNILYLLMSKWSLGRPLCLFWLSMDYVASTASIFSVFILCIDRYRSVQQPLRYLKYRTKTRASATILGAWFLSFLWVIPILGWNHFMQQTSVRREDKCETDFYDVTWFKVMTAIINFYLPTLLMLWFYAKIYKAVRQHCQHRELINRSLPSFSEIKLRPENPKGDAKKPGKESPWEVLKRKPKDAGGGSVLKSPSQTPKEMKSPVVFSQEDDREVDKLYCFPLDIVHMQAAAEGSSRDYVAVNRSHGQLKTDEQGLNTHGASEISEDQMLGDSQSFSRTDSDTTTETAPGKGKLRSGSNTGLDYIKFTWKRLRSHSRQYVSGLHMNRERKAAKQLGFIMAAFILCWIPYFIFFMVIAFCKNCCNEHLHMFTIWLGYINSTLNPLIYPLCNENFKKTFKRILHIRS

[13] = system: NMDA; test: Electrophysiology studies (Test 17); assay type: cell-based; conditions: 100 uM, holding potential -70 mV
Text: Solvent Code: DMSO Solvent Prep: 257.759
Test Add CompoundConc.(uM) # Cells % Control +/- SEM
(1 picture or pasted object on this page, not shown here)

[14] = system: rats; test: Rotarod / TOX (neurotoxicity); conditions: for Rotarod TD50: rats
[15] = system: CYP3A4 (pregnane X receptor); test: In vitro metabolic gene induction studies; assay type: cell-based, human
Text: Solvent Code: DMSO solvent Prep: Unit: uM
Cell line source: Puracyp Molecular 257.7590
lsofoIm Coder CYP3A4 Cell line: DP)e
Induction mechanism: pregnane X receptor
Concentration lnduction Cell
Fold +/- S.D Viability +/- S.D

[16] = target: T12, Sigma 1 (Homo sapiens, UniProt Q99720); test: Radioligand binding
T12 construct: purchased Eurofins CEREP
T12 sequence (Q99720 whole entry): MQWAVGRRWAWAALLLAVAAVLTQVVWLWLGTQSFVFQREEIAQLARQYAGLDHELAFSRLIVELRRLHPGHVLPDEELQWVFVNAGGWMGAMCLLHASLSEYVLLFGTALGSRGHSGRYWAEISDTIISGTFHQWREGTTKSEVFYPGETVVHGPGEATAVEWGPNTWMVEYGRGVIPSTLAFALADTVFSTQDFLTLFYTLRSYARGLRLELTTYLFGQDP

[17] = system: mice; test: Capsaicin test; assay type: in vivo
Procedure: Neurogenic pain—capsaicin test. In this test compound dissolved in saline was tested at doses 5, 10, and 30 mg/kg. Compound was administered ip and 30 min later 1.6 μg of capsaicin (Sigma-Aldrich, Germany) dissolved in 20 μL of a mixture containing 0.9% saline and ethanol (5% of the final volume) was injected intraplantarly in the ventral surface of the right-hind paw of each mouse. The animals were observed individually for 5 min following capsaicin injection. In all experimental groups, the amount of time spent on licking, biting, or lifting the injected paw was recorded with a chronometer and was considered as an indicator of nociception.

[18] = Degradation kinetics under basic conditions; assay type: physicochemical; conditions: 70.0 ± 0.5 °C, pH 9.90, 1,4-dioxane 20% v/v
Procedure: Chromatographic conditions. The liquid chromatography system Merck-Hitachi LaChrom Elite, equipped with a LiChroSpher RP-18 (250 × 4.6 mm; particle size 5 µm) column from Merck was used. Isocratic elution using a mobile phase composed of phosphate buffer pH = 4.36 and acetonitrile (40:60, v/v) at a flow rate of 1 mL min^−1 at 25 °C and single-wavelength UV detection at 260 nm was applied for the analysis. The injection volume was 20 µL.
Kinetic studies. […] After 5 min, first 50 µL sample was taken using a Hamilton syringe. The sample was diluted with 100 µL of pH = 4.36 phosphate buffer and frozen at − 18 °C. The reaction was conducted for 1606 h with samples taken at selected time intervals. After the experiment was finished, the samples have been defrosted and analyzed using the RP-HPLC method described above.

[19] = system: STZ-treated mice; test: Streptozotocin-induced diabetic neuropathy, hot plate test; assay type: in vivo
Procedure: Induction of diabetes. To induce diabetes the mice were injected with a single ip streptozotocin (STZ, Sigma-Aldrich, Germany) dose (200 mg/kg) dissolved in 0.1 N citrate buffer. Blood glucose levels were measured 1 h before and repeatedly 1, 2 and 3 weeks after STZ injection using a blood glucose monitoring system (AccuChek Active, Roche, France). Blood samples (5 µL) for the measurement of glucose concentration were obtained from the mouse tail vein. The animals were defined as diabetic when their blood glucose concentration exceeded 300 mg/dL and only those mice were used as diabetic mice in further tests. The body weight of mice was monitored 1 h before and 21 days after STZ injection.
Assessment of heat hyperalgesia in STZ-treated mice—hot plate test. Thermal hyperalgesia was assessed using the hot plate apparatus (Bioseb, France). In this test, after the establishment of pre-drug latency to pain reaction for each animal, the mice were treated with the tested compound and 30 min later they were placed into a glass cylinder on a hot plate set at 55 °C and observed for a nocifensive response (hind paw licking or jumping). The cut-off time was established at 30 s.

T1 sequence (P08588 whole entry): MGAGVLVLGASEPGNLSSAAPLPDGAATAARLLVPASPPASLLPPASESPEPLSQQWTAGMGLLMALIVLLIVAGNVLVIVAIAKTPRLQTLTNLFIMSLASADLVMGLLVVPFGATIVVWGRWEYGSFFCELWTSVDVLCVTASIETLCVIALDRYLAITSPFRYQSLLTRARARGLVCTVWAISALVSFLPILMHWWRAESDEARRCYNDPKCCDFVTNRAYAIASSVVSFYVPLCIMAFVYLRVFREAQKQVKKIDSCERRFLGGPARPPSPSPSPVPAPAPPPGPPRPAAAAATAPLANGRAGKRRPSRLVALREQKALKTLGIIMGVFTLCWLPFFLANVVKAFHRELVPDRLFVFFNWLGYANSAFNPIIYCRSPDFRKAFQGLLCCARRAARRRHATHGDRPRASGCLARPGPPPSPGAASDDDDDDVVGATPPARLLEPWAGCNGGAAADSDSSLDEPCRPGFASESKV
T2 sequence (P46098 24-478): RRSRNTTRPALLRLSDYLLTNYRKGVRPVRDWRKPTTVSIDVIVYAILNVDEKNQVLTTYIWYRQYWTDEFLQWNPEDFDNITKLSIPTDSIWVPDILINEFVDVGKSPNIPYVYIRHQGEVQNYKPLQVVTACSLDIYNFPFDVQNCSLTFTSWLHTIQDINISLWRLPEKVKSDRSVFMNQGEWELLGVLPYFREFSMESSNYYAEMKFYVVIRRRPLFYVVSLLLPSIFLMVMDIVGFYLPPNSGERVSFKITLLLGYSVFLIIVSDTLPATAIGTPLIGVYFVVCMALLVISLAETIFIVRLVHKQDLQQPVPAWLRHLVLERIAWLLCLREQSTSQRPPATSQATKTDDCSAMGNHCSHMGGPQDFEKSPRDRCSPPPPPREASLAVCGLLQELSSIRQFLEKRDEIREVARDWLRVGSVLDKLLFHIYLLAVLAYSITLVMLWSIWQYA

Question: Which “% of control specific binding” value [1] does the source give for `CCC(CO)NCCOc1c(C)cccc1Cl` (centres unmarked) [Compound 4, R,S-2-((2-(2-chloro-6-methylphenoxy)ethyl)amino)butan-1-ol] here?
Answer: Its value is 64.4%.

Question: And the “% of control specific binding” value [2]?
Answer: The value was 76.2%.

Question: And the “% of control specific binding” value [3]?
Answer: The value was 85.1%.

Question: What about the “% of control specific binding” value [4] of the same molecule?
Answer: Its value is 111.7%.

Question: And the “% of control specific binding” value [5]?
Answer: The value was 123.5%.

Question: What about the “% of control specific binding” value [6] of the same molecule?
Answer: The value was 50.1%.

Question: What about the “% of control specific binding” value [7] of the same molecule?
Answer: Its value is 130.9%.

Question: And the “% of control specific binding” value [8]?
Answer: Its value is 52.8%.

Question: And the “% of control specific binding” value [9]?
Answer: Its value is 127.9%.

Question: What about the “% of control specific binding” value [10] of the same molecule?
Answer: The value was 55.0%.

Question: What about the “% of control specific binding” value [11] of the same molecule?
Answer: The value was 119.0%.

Question: And the “% of control specific binding” value [12]?
Answer: The value was 58.9%.

Question: And the “% Control +/- SEM” value [13]?
Answer: The value was 63%.

Question: What about the “Rotarod TD50” value ([14]; ip, listed as 348014) of the same molecule?
Answer: The value was < 50 mg/kg.

Question: And the “Rotarod TD50” value ([14]; po)?
Answer: Its value is > 240 mg/kg.

Question: And the “TOX TD50” value ([14]; report of 16-Aug-2004 (rats, po))?
Answer: The value was > 60 mg/kg.

Question: And the “Max induction (calculated)” value ([15]; @ 200uM)?
Answer: The value was 12 fold.

Question: What about the pEC50 ([15]; read-out: EC50 (calculated)) of the same molecule?
Answer: Its pEC50 is 4.00.

Question: For `CCC(CO)NCCOc1c(C)cccc1Cl` (centres unmarked) [KM-408, R,S-2-((2-(2-chloro-6-methylphenoxy)ethyl)amino)butan-1-ol hydrochloride], which inhibition at 10 µM ([16]; read-out: % inhibition of specific control binding) is on record?
Answer: The inhibition at 10 µM was 95%.

Question: What about the remaining activity at 10 µM ([16]; read-out: % of control specific binding) of the same molecule?
Answer: The remaining activity at 10 µM was 95%.

Question: And the “reduction of nociceptive response” value ([17]; 5 mg/kg ip, not significant)?
Answer: Its value is 19%.

Question: And the licking response ([17]; 10 mg/kg ip)?
Answer: Its licking response is 42.7 ± 5.6 s.

Question: And the “reduction of licking response” value ([17]; 10 mg/kg ip)?
Answer: The value was 38%.

Question: And the licking response ([17]; 30 mg/kg ip)?
Answer: The licking response was 27.7 ± 5.7 s.

Question: And the “reduction of licking response” value ([17]; 30 mg/kg ip)?
Answer: Its value is 60%.

Question: What about the ED50 ([17]; Mus musculus, mice, ip) of the same molecule?
Answer: Its ED50 is 19 mg/kg.

Question: What about the Rate constant k [18] of the same molecule?
Answer: Its Rate constant k is 0.83·10^–3 h^−1.

Question: And the t0.1 [18]?
Answer: The t0.1 was 127.0 h.

Question: And the half-life at 5 mg/mL ([18]; borate buffer with 20% v/v 1,4-dioxane, pH 9.9, read-out: Half-life t0.5 (converted))?
Answer: The half-life at 5 mg/mL was 34.8 days.

Question: And the “effect in hot plate test” value ([19]; 1 mg/kg, STZ-treated mice)?
Answer: The value was “not effective”.

Question: What about the “latency to pain reaction” value ([19]; 10 mg/kg, STZ-treated mice) of the same molecule?
Answer: The value was 15.8 ± 2.2 s.

Question: What about the “prolongation of latency vs. diabetic control” value ([19]; 10 mg/kg, STZ-treated mice) of the same molecule?
Answer: The value was 63%.

Question: And the “latency to pain reaction” value ([19]; 30 mg/kg, STZ-treated mice)?
Answer: The value was 21.6 ± 2.2 s.

Question: And the “prolongation of latency vs. diabetic control” value ([19]; 30 mg/kg, STZ-treated mice)?
Answer: Its value is 123%.

Question: And the “STZ-induced pain (hot plate): active at” value ([19]; mice, ip)?
Answer: The value was 10 mg/kg.

Source: paper PMC9889419 (Pharmacological Reports, 2022)
